“And” between values parts separate entries of the source, which are not always exact repeats. Identical values can stand only once.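 Interpolation was linear, between the two tested concentrations surrounding the appropriate level; five concentrations were tested over 48 hours in 96-well plates. GI50 is the concentration that inhibits growth by half. TGI is the concentration that stops growth completely.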
System: MDA-MB-468 breast
Assay: DTP human tumour cell line panel, 48 h

Row | Compound | GI50 | TGI
1 | CCN(CC)c1ccc(/C=N/NC(=O)c2ccc(S(C)(=O)=O)cc2)c(O)c1 | 250 nM | 1270 nM
2 | CCN1C(C)(C)CC(Oc2ccc(C(=O)Nc3ccc(NC(=O)Nc4cc(C(C)(C)C)on4)cc3)nc2)CC1(C)C | 3210 nM | 8950 nM
3 | CSc1nc(N)cc(Oc2ccc(-c3nc(Nc4cccc(C(F)(F)F)c4)n[nH]3)cc2)n1 | 360 nM | 2660 nM
4 | N#C/C(=C/NC(=S)NCc1ccccc1)C(N)=O | > 100000 nM | > 100000 nM
5 | O=c1oc2ccc(Br)cc2c(=O)n1-c1ccc(Br)cc1F | 819 nM | 4320 nM
6 | C/C(=C1\SC(=NCc2cccs2)NC1=O)c1ccc2ncccc2c1 | 7130 nM | > 25000 nM
7 | O=C1NC(=NCc2ccccc2Br)S/C1=C\c1ccc2ncccc2c1 | 4220 nM | > 25000 nM
8 | COc1cccc2c1C(=O)c1c(O)c3c(c(O)c1C2=O)C[C@@](O)(C(C)=O)C[C@@H]3O[C@H]1C[C@H](N)[C@H](O)[C@H](C)O1 | 71.6 nM | 221 nM
9 | CN1N=C(N)c2cn(C3OC(COP(=O)(O)O)C(O)C3O)c3ncnc1c23 (configuration not stated) | 205 nM | 3050 nM
10 | Clc1ccc(Nc2nnc(CNc3ccccc3)c3ccccc23)cc1 | 1900 nM | 11500 nM
11 | COc1cc(C2CC(c3cccc(Nc4ccnc5cc(Cl)ccc45)c3)=NN2C=O)cc(OC)c1OC (configuration not stated) | 293 nM | 1070 nM
12 | O=C1Nc2ccccc2/C1=C\c1c[nH]c2ccc(Br)cc12 | 1620 nM | 3760 nM
13 | O=C(NCCCN1CCC(N2CCCCC2)CC1)C1=Cc2cc(Br)ccc2OC1 | 3150 nM | 12600 nM
14 | COc1ccc(NC(=O)Nc2ccccc2CNc2nc(Nc3ccc(OCCN4CCCC4)cc3)ncc2Cl)cc1 | 894 nM | 1720 nM
15 | O=C1C=CC=C[C@@H]2C(C3OCCO3)CC[C@H]12.[C-]#[O+].[C-]#[O+].[C-]#[O+].[Fe] (some centres not stated) | 35200 nM | > 100000 nM
16 | Cc1ccccc1N1CCN(C2=C(Cl)C(=O)c3ncccc3C2=O)CC1 | 1600 nM | 3180 nM

Row | Compound | GI50 | TGI
17 | CCCN1CCN(c2ccc3nc(-c4ccc5nc(-c6ccc(C(F)(F)F)cc6)[nH]c5c4)[nH]c3c2)CC1 | 1780 nM | 3390 nM
18 | C#C[C@]1(O)CC[C@H]2[C@@H]3CC=C4c5sc(Nc6ccc(OC)nc6)nc5CC[C@]4(C)[C@H]3CC[C@@]21C | 1460 nM | 3530 nM
19 | Oc1c(I)cc(I)cc1CNCCN(Cc1ccccn1)Cc1ccccn1 | 1670 nM | 4850 nM
20 | Cn1cc(C2=C(Oc3ccccc3)C(=O)NC2=O)c2ccccc21 | > 25000 nM | > 25000 nM
21 | Cc1ncc(C(=O)Nc2ccc(CN3CCN(C)CC3)c(C(F)(F)F)c2)cc1C#Cc1c(N)ncc2ccc(F)cc12 | 2820 nM | 12000 nM
22 | Cn1cc(-c2nonc2-c2cn(C)c3ccc(F)cc23)c2ccccc21 | 515 nM | > 84000 nM
23 | COc1ccc(C2C(C#N)=C(N)Oc3c2sc2c(F)cccc32)cc1 (configuration not stated) | 1340 nM | 10600 nM
24 | C=CCNCCN1C(=O)c2ccc3c4c(ccc(c24)C1=O)C(=O)N(CCNCC=C)C3=O | 466 nM | 1160 nM
25 | Cc1cc(Nc2nc(-c3ccc(F)cc3)nc3ccccc23)n[nH]1 | 2010 nM | 11300 nM
26 | CS(=O)(=O)CCN(CC#N)Cc1ccc(-c2ccc3ncnc(Nc4ccc(OCc5cccc(F)c5)c(Cl)c4)c3c2)o1 | 76.7 nM | 1090 nM
27 | O=C(OCc1nc2nc(Cl)nc(N3CCOCC3)c2[nH]1)n1ccnc1 | 1850 nM | 3540 nM
28 | COc1cc(-c2cc(/C=C3\C(=O)Nc4cc(Cl)ccc43)[nH]n2)cc(OC)c1OC | 3170 nM | 18200 nM
29 | O=c1[nH]cnc2c1ccn2C1OC(CO)C(O)C1O (configuration not stated) | 762 nM | 3730 nM
30 | C[C@H](NC(=O)c1c(N)nn2cccnc12)c1cc2cccc(C#Cc3cnn(C)c3)c2c(=O)n1-c1ccccc1 | 843 nM and 1460 nM | 4550 nM and 9080 nM
31 | Clc1ccc(CNc2ccc3nc(CCC4CCCCC4)[nH]c3c2)cc1 | 1570 nM | 3470 nM
